≈ marks a conversion by molar mass, not a printed value. Where “and” joins values, the source holds several entries; their conditions need not be identical. Equal values may be shown once. Read-outs that look alike come from different tables or passages of the source.
How the values were obtained:
[1] = molecular target: purified MelF (Mycobacterium marinum, UniProt Q5SDQ6); test: Ki determination by Dixon plots; format: biochemical; conditions: for Ki: Dixon plots, substrate 50, 100 and 150 μM; for type of inhibition (Dixon's plot): intersection of Dixon's plots
purified MelF, sequence (Q5SDQ6 entry or part of it): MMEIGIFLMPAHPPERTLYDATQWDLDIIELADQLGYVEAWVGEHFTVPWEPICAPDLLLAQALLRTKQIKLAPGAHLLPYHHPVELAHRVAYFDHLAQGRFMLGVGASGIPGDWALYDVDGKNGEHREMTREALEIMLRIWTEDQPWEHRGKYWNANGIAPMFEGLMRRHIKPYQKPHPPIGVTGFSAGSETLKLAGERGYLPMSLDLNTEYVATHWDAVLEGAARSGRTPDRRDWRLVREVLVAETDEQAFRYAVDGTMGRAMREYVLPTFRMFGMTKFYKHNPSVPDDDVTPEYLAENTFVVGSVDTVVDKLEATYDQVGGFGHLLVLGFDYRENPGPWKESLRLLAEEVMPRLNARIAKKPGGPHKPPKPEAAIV
Description: The enzyme activity was assayed by monitoring a decrease in absorption of NADH (nicotinamide adenine dinucleotide) at 340 nm (ε = 6.22 X 10^3 M^-1cm^-1) in 50 mM Tris-Cl, pH 7.4 at 25°C. The steady state kinetic measurements were performed in a 1-cm path length cuvette in a final volume of 1mL according to the method of Kendrew et al. with slight modifications. 300μM of NADH and 80μM of FAD (flavin adenine dinucleotide) were added and the assay was initiated with the addition of 100 μg (6.09× 10^−10 mole) of enzyme present in WCL/purified MelF. The reaction was followed at 25°C for 5 min. The FAD was kept in the dark to prevent photo-reduction. The specific activity of the enzyme was calculated as Units/mg = ΔA340/min/6.22×mg enzyme/ mL reaction mixture Where ΔA340 represents a change in absorbance of NADH at 340 nm.
Ki values were calculated using Dixon plots, where inverse of Vmax values were plotted against the inhibitor concentration using different substrate concentrations.

[2] = system: M. marinum; test: MIC by resazurin microtiter plate assay (REMA); format: cell-based, M. marinum strain M; conditions: 48 h, ~5 X 10^6/well, median (range) of three independent experiments; for MIC: Mycobacterium marinum
[3] = system: M. tuberculosis; test: MIC by resazurin microtiter plate assay (REMA); format: cell-based, M. tuberculosis H37Rv; conditions: 96 h, ~5 X 10^6/well, median (range) of three independent experiments; for MIC: Mycobacterium tuberculosis
[4] = system: M. marinum; test: MBC by CFU assay; format: cell-based, M. marinum strain M; conditions: for MBC: Mycobacterium marinum; for MBC / MBC, M. marinum: CFU assay, 48 h, median (range) of three independent experiments; for MBC/MIC, M. marinum: ratio, bactericidal when ≤ 4
[5] = system: M. tuberculosis; test: MBC by CFU assay; format: cell-based, M. tuberculosis H37Rv; conditions: for MBC: Mycobacterium tuberculosis; for MBC / MBC, M. tuberculosis: CFU assay, 96 h, median (range) of three independent experiments; for MBC/MIC, M. tuberculosis: ratio, bactericidal when ≤ 4
[6] = system: M. tuberculosis; test: Resazurin drugs combination microtiter assay (RIF/INH + inhibitor); format: cell-based, M. tuberculosis H37Rv; conditions: for FICI in combination with INH, M. tuberculosis: synergistic inhibitory effect
[7] = system: HeLa cells; test: MTT cytotoxicity assay; format: cell-based, Human; conditions: 20 h
Description: The MTT (3-(4, 5-dimethyl thiazol-2yl)-2, 5-diphenyl tetrazolium bromide) assay was employed to assess the cytotoxicity of the inhibitors. HeLa cells (Human cervical epithelial cells) were plated at a concentration of 1×10^5/well in 100 μL of minimal essential medium (MEM) supplemented with 10% heat-inactivated fetal bovine serum (FBS) in 96-well plates. After overnight incubation at 37°C in 5% CO2 incubator, media was removed and the inhibitors were added in 100 μL of MEM + 10% heat-inactivated FBS at 1X and 5 X MIC concentrations. After incubation for 20 h, the cells were washed thrice with warm MEM (without FBS) and 200 μL of MTT (5mg/mL) was added. The plates were further incubated for 4 h, followed by the addition of 50 μL of DMSO (solubilizing reagent) per well, mixed thoroughly by a micropipette and left for 45 s. Presence of viable cells was visualized by the development of purple color due to formation of formazan crystals. The OD values were read at 595 nm using DMSO as a blank. A standard graph was plotted between the concentration of inhibitors and the relative cell viability.
Cell viability (%) = Test OD /Control ODX 100

[8] = system: M. marinum; test: Resazurin drugs combination microtiter assay (RIF/INH + inhibitor); format: cell-based, M. marinum strain M; conditions: for FICI in combination with INH, M. marinum: synergistic inhibitory effect
[9] = system: M. tuberculosis; test: MBC of combinations of drugs (RIF/INH) and inhibitors; format: cell-based, M. tuberculosis H37Rv; conditions: for bactericidal effect in combination with RIF against M. tuberculosis: compared with RIF alone
[10] = at both 1X and 5X MIC concentrations

| Compound | Ki ([1]; Ki) | type of inhibition (Dixon's plot) [1] | MIC, M. marinum [2] | MIC [2] [µM] | MIC, M. tuberculosis [3] | MIC [3] [µM] | MBC [4] [µM] | MBC/MIC, M. marinum [4] | MBC [5] [µM] | MBC/MIC, M. tuberculosis [5] | FICI in combination with INH, M. tuberculosis [6] | cytotoxicity in HeLa cells [7, 10] | Ki ([1]; read-out: Ki) | MBC, M. marinum [4] | MBC, M. tuberculosis [5] | also measured |
| --- | --- | --- | --- | --- | --- | --- | --- | --- | --- | --- | --- | --- | --- | --- | --- | --- |
| CCC(C)c1ccc(OCCSc2nc3ccccc3[nH]2)cc1 (centres unmarked) [compound 6492687, 2-{[2-(4-sec-butylphenoxy)ethyl]thio}-1H-benzimidazole] | 25 µM and 24 µM | competitive inhibition | 9.57 (9.57) μM | 9.57 to 19.4 (≈ 3.12 to 6.33 µg/mL) | 38.28 (19.14–38.28) μM | 32.7 to 38.8 (≈ 10.7 to 12.7 µg/mL) | 38.3 (≈ 12.5 µg/mL) | 4 | 38.3 (≈ 12.5 µg/mL) | 1 | 0.257–0.263 | cytotoxic | – | – | – | – |
| c1ccc(CC(Cc2nc3ccccc3[nH]2)c2nc3ccccc3[nH]2)cc1 (centres unmarked) [compound 5255825, 2,2'-(3-phenyl-1,2-propanediyl)bis-1H-benzimidazole] | 4 µM | competitive inhibition | 17.74 (8.87–17.74) μM | 9.57 to 19.4 (≈ 3.37 to 6.83 µg/mL) | 35.47 (17.74–35.47) μM | 32.7 to 38.8 (≈ 11.5 to 13.7 µg/mL) | 35.5 (≈ 12.5 µg/mL) | 2 | 35.5 (≈ 12.5 µg/mL) | 1 | 0.257–0.263 | cytotoxic | – | – | – | FICI in combination with INH, M. marinum [8]: 0.276 |
| N~1~,N~1~-diethyl-N~4~-{6-methoxy-2-[2-(4-nitrophenyl)vinyl]-4-quinolinyl}-1,4-pentanediamine [compound 5255829] | – | competitive inhibition | 9.57–19.39 μM and 16.30 (8.15–16.30) μM | – | 32.68–38.77 μM and 32.68 (32.68) μM | – | – | 2 | – | 1 | – | not cytotoxic | 9 µM | 32.68 (32.68) μM | 32.68 (32.68) μM | – |
| CO[C@H]1/C=C/O[C@@]2(C)Oc3c(C)c(O)c4c(O)c(c(/C=N/N5CCN(C)CC5)c(O)c4c3C2=O)NC(=O)/C(C)=C\C=C\[C@H](C)[C@H](O)[C@@H](C)[C@@H](O)[C@@H](C)[C@H](OC(C)=O)[C@@H]1C [RIF, Rifampicin, reference compound] | – | – | – | 0.475 (≈ 0.391 µg/mL) | – | 0.048 (≈ 0.0395 µg/mL) | 0.95 (≈ 0.782 µg/mL) | 2 | 0.095 (≈ 0.0782 µg/mL) | 2 | – | – | – | – | – | – |
| 2,2'-[3-(3-methoxyphenyl)-1,2-propanediyl]bis-1H-benzimidazole [compound 9125618] | – | noncompetitive inhibition | 9.57–19.39 μM and 18.80 (9.40–18.80) μM | – | 32.68–38.77 μM and 37.61 (18.80–37.61) μM | – | – | 2 | – | 1 | – | – | 24 µM and 25 µM | 37.61 (37.61) μM | 37.61 (37.61) μM | bactericidal effect in combination with RIF against M. tuberculosis [9]: enhanced bactericidal effect; cytotoxicity in HeLa cells ([7]; 5X MIC concentration): ~ 18% |
| 2-{[(2-methyl-6-phenyl-4-pyrimidinyl)thio]methyl}-1H-benzimidazole [compound 6513745] | – | noncompetitive inhibition | – | – | 32.68–38.77 μM and 38.77 (19.39–38.77) μM | – | – | 2 | – | 1 | – | not cytotoxic | 18 µM | 38.77 (19.39–38.77) μM | 38.77 (19.39–38.77) μM | combined effect with INH against M. marinum ([8]; in combination with INH): synergistic inhibitory effect; FICI in combination with INH, M. marinum [8]: 0.276 |
| NNC(=O)c1ccncc1 [INH, Isoniazid, reference compound] | – | – | – | 4.53 (≈ 0.621 µg/mL) | – | 2.27 (≈ 0.311 µg/mL) | 4.53 (≈ 0.621 µg/mL) | 1 | 2.27 (≈ 0.311 µg/mL) | 1 | – | – | – | – | – | – |
| CC(C)COc1ccc(-c2nn(-c3ccccc3)cc2CO)cc1 [compound 5175552, [3-(4-isobutoxyphenyl)-1-phenyl-1H-pyrazol-4-yl]methanol] | 68 µM | competitive inhibition | 3.38 (3.38) μM | 3.38 (≈ 1.09 µg/mL) | 13.51 (13.51–27.02) μM | 13.5 (≈ 4.36 µg/mL) | 6.76 (≈ 2.18 µg/mL) | 2 | 27 (≈ 8.71 µg/mL) | 2 | 0.257–0.263 | not cytotoxic | – | 6.76 (6.76) μM | 27.02 (13.51–27.02) μM | combined effect with INH against M. tuberculosis ([6]; in combination with INH): synergistic inhibitory effect; MBC/MIC ratio in combination with RIF, M. tuberculosis [9]: 1; bactericidal effect in combination with RIF against M. tuberculosis [9]: enhanced bactericidal effect |
